Consider two molecules from US20260048099A1, “SYNERGISTIC INTERACTIONS FOR IMPROVED CANCER TREATMENT” (THE UNITED STATES OF AMERICA, AS REPRESENTED BY THE …, priority 2022, published 2026).

For one test, the system named is xenograft models. The following applies: cited from earlier work.
Test [1] has as its system tumor-infiltrating CD8^+T, NK cells and DC populations in EO771 tumors. The experiment in a line: Flow cytometry and IHC of immune infiltrates in EO771 tumors and draining lymph nodes. The test is classed as in vivo, C57BL/6 mice. The following applies: flow cytometry. How it is done: EO771 tumors were analyzed by flow cytometry and immunohistochemistry (IHC) to explore the changes in the tumor immune phenotype upon hetIL-15 treatment. The shorter treatment schedule consisting of 3 hetIL-15 injections was used for these analyses and the tumors were assessed 48 h after the last injection (FIG. 1A). […] Overall, hetIL-15 administration altered the tumor microenvironment by promoting the intratumoral infiltration of activated cytotoxic T and NK cells, as we previously reported (Bergamaschi et al., 2020; Ng et al., 2017).
Guided by our transcriptomic data and our recent report (Bergamaschi et al., 2020), we established a flow cytometry staining protocol (FIG. 3B) that allows distinction of different myeloid cell populations (Bottcher et al., 2018; Guilliams et al., 2016). CD103^+cDC1s were defined as Lin(NK1.1,CD19,B220,CD3)^negCD64^−MHCII^+CD11c^+CD103^+CD11b^−; CD11b^+cDC2s were defined as Lin(NK1.1,CD19,B220,CD3)^negCD64^−MHCII^+CD11c^+CD103^−CD11b^+ and macrophages were defined as Lin(NK1.1, CD19,B220,CD3)^negCD64^+F4/80^+. […] Importantly, tumor infiltration by both […] and CD103^intCD11b^+DCs inversely correlated with the EO771 tumor size in hetIL-15 treated animals 48 hrs after the 3rd hetIL-15 injection (FIG. 3F). In contrast, no correlation between intratumoral CD11b^+cDC2s and tumor size was observed (FIG. 3F).
Tissue samples, including tumors, were fixed in 10% neutral buffered formalin (NBF, Sigma) then routinely processed and paraffin embedded. Tumor and lung sections were dewaxed and rehydrated and then were stained with hematoxylin and eosin (H&E). For immunohistochemistry, sections were antigen-retrieved with heat-induced or enzymatic method. Peroxidase activity was blocked using 1.5% hydrogen peroxide. Sections were blocked with different blocking protocols, depending on the antibody. […]
At necropsy tumors and dLNs were processed for flow cytometric analysis. […] The samples were acquired on a Fortessa (BD Biosciences) flow cytometer, and the data were analyzed using the FlowJo software (Tree Star).

A further test relates to NK-92 cells. The experiment in a line: IFN-γ production by stimulated NK-92 cells. Format: cell-based. The following applies: stimulation of NK-92 cells.

For the molecule `CC(C)(C)c1cc(NC(=O)Nc2ccc(-c3cn4c(n3)sc3cc(OCCN5CCOCC5)ccc34)cc2)no1.Cl.Cl` [AC220, N-(5-tert-butyl-isoxazol-3-yl)-N′-{4-[7-(2-morpholin-4-yl-ethoxy)imidazo[2,1-b][1,3]benzothiazol-2-yl]phenyl}urea dihydrochloride], the “Lowest dose with activity in animal models” value in the test on xenograft models (doses as low as) is listed as 1 mg/kg. Also, the Efficacy and tolerability result in the test on xenograft models (xenograft models) is “good efficacy and tolerability”. Also, in test [1], the “Intratumoral CD11b+cDC2 (cells per gram of tissue)” value was “increased infiltration of CD11b^+cDC2s”; the “Intratumoral CD103+cDC1 (cells per gram of tissue)” value is reported as “a minor effect on CD103+cDC1s, decreasing this DC population”; the “Intratumoral CD103intCD11b+DC (cells per gram of tissue)” value was “no significant difference”.

B1: IL-12p70: active IL-12 heterodimer of IL-12A (p35) and IL-12B (p40), referred to as p70 (protein, UniProt P29459 23-219; P29460 23-328, looked up)
Interleukin-12 subunit alpha: RNLPVATPDPGMFPCLHHSQNLLRAVSNMLQKARQTLEFYPCTSEEIDHEDITKDKTSTVEACLPLELTKNESCLNSRETSFITNGSCLASRKTSFMMALCLSSIYEDLKMYQVEFKTMNAKLLMDPKRQIFLDQNMLAVIDELMQALNFNSETVPQKSSLEEPDFYKTKIKLCILLHAFRIRAVTIDRVMSYLNAS
Interleukin-12 subunit beta: IWELKKDVYVVELDWYPDAPGEMVVLTCDTPEEDGITWTLDQSSEVLGSGKTLTIQVKEFGDAGQYTCHKGGEVLSHSLLLLHKKEDGIWSTDILKDQKEPKNKTFLRCEAKNYSGRFTCWWLTTISTDLTFSVKSSRGSSDPQGVTCGAATLSAERVRGDNKEYEYSVECQEDSACPAAEESLPIEVMVDAVHKLKYENYTSSFFIRDIIKPDPPKNLQLKPLKNSRQVEVSWEYPDTWSTPHSYFSLTFCVQVQGKSKREKKDRVFTDKTSATVICRKNASISVRAQDRYYSSSWSEWASVPCS
Consider B1, for which the IFN-γ production entry in the test on NK-92 cells was “results in IFN-γ production”.
